Patent publication US20220401429A1, “USE OF ANAMORELIN TO TREAT CANCER-RELATED FATIGUE” (Helsinn Healthcare SA, priority 2021, published 2022)

Legend:
Type in all cases: in vivo, human
[1] = system: patients with advanced cancer; assay: FACIT-F fatigue subscale, single arm study of anamorelin (Example 1); conditions: for FACIT-F Fatigue Subscale, change, Mean (±SD): change from baseline, 100 mg oral daily + physical activity + nutritional counseling
Source text: This study was undertaken to isolate and evaluate anamorelin's effect on fatigue, energy expenditure, and other side effects of cancer in a cancer-stricken population, by including in the study population only those patients suffering significant levels of fatigue and inflammatory activity, excluding from the study population confounding factors such as depression and anemia, and controlling for a consistent level of nutrition and physical exercise.
(§1) In this single arm study, 38 patients were intended for treatment with anamorelin for 6 weeks with an optional extension phase of 6 more weeks based on tolerability and safety and patient willingness. Patients received anamorelin 100 mg tablets and physical activity for 6 weeks for the intervention phase. Patients took 1 tablet orally while fasting (at least 1 hour before a meal).
• diagnosis of advanced cancer (metastatic or recurrent incurable solid tumors excluding prostate cancer) • fatigue on FACIT-F subscale of ≤34 on a 0 to 52 scale [in which 52=no fatigue and 0=worst possible fatigue] • CRP ≥3 mg/L* in the absence of any other more likely cause of increased CRP like an infection or an autoimmune disorder • unintentional weight loss of from 2% to 15% at any time within the previous 12 months • No evidence of moderate to severe depression as determined by a HADS depression score of ≤13 • Hemoglobin level ≥9 g/dL
A primary objective of the study was to examine the effects of anamorelin and standardized physical activity and nutritional counseling on changes in the Functional Assessment of […] (FACIT-F) subscale score at Day 43±3 days compared to baseline in patients with advanced cancer receiving oral anamorelin 100 mg daily and standardized physical activity and nutritional counseling.
FACIT-F is a well-validated QOL instrument in cancer patients (Cella, Tulsky et al. 1993). The 13-item fatigue subscale is a patient-rated assessment of intensity of fatigue and its related symptoms on a scale of 0 to 4.

[2] = system: patients with advanced cancer; assay: Edmonton Symptom Assessment Scale (ESAS), Example 1 study; conditions: change from baseline, 100 mg oral daily + physical activity + nutritional counseling
Procedure: as §1
(§2) Secondary objectives of the study were to examine the effects of anamorelin and standardized physical activity and nutritional counseling on Health-related quality of life and patient reported outcomes as measured by The Multidimensional Fatigue Symptom Inventory-Short Form[MFSI-SF], PROMIS-Fatigue, Hospital Anxiety Depression Scale (HADS), Edmonton Symptom Assessment Scale (ESAS), Functional Assessment of Cancer Therapy (FACT-G), and its Functional Assessment of Anorexia/Cachexia Treatment (FAACT) subscale in these patients.
The ESAS measures 10 common symptoms in the past 24 hours (pain, fatigue, nausea, depression, anxiety, drowsiness, shortness of breath, appetite, sleep, and feeling of well-being); This questionnaire has been found valid and reliable in cancer populations (Bruera, Kuehn et al. 1991).

[3] = system: patients with advanced cancer; assay: Multidimensional Fatigue Symptom Inventory-Short Form (MFSI-SF), Example 1 study; conditions: change from baseline, 100 mg oral daily + physical activity + nutritional counseling
Procedure: as §1, §2
MFSI-SF consists of 30 items designed to assess the multidimensional nature of fatigue(Stein, Jacobsen et al. 2004). Ratings are summed to obtain scores for 5 subscales (general fatigue, physical fatigue, emotional fatigue, mental fatigue, and vigor).

SMILES: CN(C)N(C)C(=O)[C@@]1(Cc2ccccc2)CCCN(C(=O)[C@@H](Cc2c[nH]c3ccccc23)NC(=O)C(C)(C)N)C1 [anamorelin]
- FACIT-F increase from baseline, linear mixed model with time as categorical variable ([1]; 43-day measure): 4.89
- FACIT-F Fatigue Subscale, change, Mean (±SD) ([1]; Day 15 (N = 28)): 3.89 (±8.71),
- FACIT-F Fatigue Subscale, change, Mean (±SD) ([1]; Day 29 (N = 28)): 6.32 (±9.53),
- FACIT-F Fatigue Subscale, change, Mean (±SD) ([1]; Day 86 (N = 8)): 8.13 (±12.62),
- Effect size for improvement in CRF ([1]; this study, FACIT-F Day 43 (Cohen's D)): 0.37
- FACIT-F average increase over time, linear mixed model ([1]; time effect, FIG. 1): 0.11 units per day
- ESAS Appetite, change, Mean (±SD) ([2]; Day 15 (N = 28)): −0.43 (±3.06),
- ESAS-Fatigue, change, Mean (±SD) ([2]; Day 15 (N = 28)): −0.68 (±2.87),
- ESAS Appetite, change, Mean (±SD) ([2]; Day 29 (N = 28)): −1.04 (±3.19),
- ESAS-Fatigue, change, Mean (±SD) ([2]; Day 29 (N = 28)): −0.75 (±2.70),
- ESAS Appetite, change, Mean (±SD) ([2]; Day 43 (N = 28)): −0.56 (±3.07),
- ESAS-Fatigue, change, Mean (±SD) ([2]; Day 43 (N = 28)): −0.81 (±2.87),
- ESAS Appetite, change, Mean (±SD) ([2]; Day 86 (N = 8)): −0.13 (±3.09),
- ESAS-Fatigue, change, Mean (±SD) ([2]; Day 86 (N = 8)): −1.25 (±2.43),
- MFSI-SF Emotional fatigue, change, Mean (±SD) ([3]; Day 15 (N = 28)): −0.43 (±2.20),
- MFSI-SF General fatigue, change, Mean (±SD) ([3]; Day 15 (N = 28)): −2.25 (±4.53),
- MFSI-SF Mental fatigue, change, Mean (±SD) ([3]; Day 15 (N = 28)): −0.93 (±2.57),
- MFSI-SF Physical fatigue, change, Mean (±SD) ([3]; Day 15 (N = 28)): −0.71 (±3.69),
- MFSI-SF Total, change, Mean (±SD) ([3]; Day 15 (N = 28)): −4.79 (±9.59),
- MFSI-SF Vigor, change, Mean (±SD) ([3]; Day 15 (N = 28)): 0.46 (±2.89),
- MFSI-SF Emotional fatigue, change, Mean (±SD) ([3]; Day 29 (N = 28)): 0.14 (±3.15),
- MFSI-SF General fatigue, change, Mean (±SD) ([3]; Day 29 (N = 28)): −4.18 (±5.74),
- MFSI-SF Mental fatigue, change, Mean (±SD) ([3]; Day 29 (N = 28)): −1.39 (±2.90),
- MFSI-SF Physical fatigue, change, Mean (±SD) ([3]; Day 29 (N = 28)): −0.50 (±4.43),
- MFSI-SF Total, change, Mean (±SD) ([3]; Day 29 (N = 28)): −6.32 (±12.41),
- MFSI-SF Vigor, change, Mean (±SD) ([3]; Day 29 (N = 28)): 0.39 (±3.46),
- MFSI-SF Emotional fatigue, change, Mean (±SD) ([3]; Day 43 (N = 28)): 1.04 (±4.36),
- MFSI-SF Mental fatigue, change, Mean (±SD) ([3]; Day 43 (N = 28)): −0.36 (±4.12),
- MFSI-SF Physical fatigue, change, Mean (±SD) ([3]; Day 43 (N = 28)): −0.39 (±5.03),
- MFSI-SF Total, change, Mean (±SD) ([3]; Day 43 (N = 28)): −2.07 (±17.59),
- MFSI-SF Vigor, change, Mean (±SD) ([3]; Day 43 (N = 28)): −1.11 (±5.28),
- MFSI-SF Emotional fatigue, change, Mean (±SD) ([3]; Day 86 (N = 8)): −0.88 (±2.42),
- MFSI-SF General fatigue, change, Mean (±SD) ([3]; Day 86 (N = 8)): −4.00 (±6.28),
